The values below are quoted from earlier work in publication PMC9510668 (Frontiers in Pharmacology, 2022).

One data set concerns VEGFR. The settings on record: ref Heath et al., 2010; cited from earlier work.
For data set [1] the following is noted: human; ref Heath et al., 2010; cited from earlier work.
On the set-up of data set [2]: method as in Röhss and Hedenström, 2002. The settings on record: 40 mg OD orally for 5 days; ref Röhss and Hedenström, 2002; cited from earlier work.
The conditions of data set [3]: cited from earlier work.
For data set [4] the following is noted: healthy human, mean, cited from earlier work.
For data set [5] the following is noted: cited from earlier work. The source holds these as a separate data set.
Data set [6] concerns CYP3A4. Conditions: read-out: Ki CYP3A4; ketoconazole; ref [1]; cited from earlier work.
The next data set concerns UGT1A1. Also on record: method as in ref [2] (a number printed in a supplementary file, which may have a reference list of its own: not looked up in the article's list). Conditions: ref [2]; cited from earlier work.
Another data set has as its system P-gp. Conditions: lapatinib; ref [8]; cited from earlier work.
The next data set has as its system CYP3A5. Also on record: method as in ref [6] (a number printed in a supplementary file, which may have a reference list of its own: not looked up in the article's list). The settings on record: ref [6]; cited from earlier work.
The subject of the next data set is OATP1B1. The settings on record: lapatinib; ref [8]; cited from earlier work.
The subject of data set [7] is CYP3A4. More on the design: method as in ref [6] (a number printed in a supplementary file, which may have a reference list of its own: not looked up in the article's list). The settings on record: ref [6]; cited from earlier work.
The next data set deals with BCRP1. Also on record: method as in ref [8] (a number printed in a supplementary file, which may have a reference list of its own: not looked up in the article's list). Conditions: lapatinib; ref [8]; cited from earlier work.

Molecules are shown by their SMILES. Values after ≈ are worked out from the molar mass of the structure shown. Like-named read-outs stand apart in the source and are kept apart here.

For `Cc1c2ccc(N(C)c3ccnc(Nc4ccc(CO)c(S(N)(=O)=O)c4)n3)cc2nn1C` [GSK1268997], the “Potency towards VEGFR in comparison to PAZ” value in the data set with VEGFR is given as “equal potency”. The “Systemic exposure relative to unchanged PAZ” value in data set [1] is on record as “about 2%”.

`COc1ccc2nc([S@@+]([O-])Cc3ncc(C)c(OC)c3C)[nH]c2c1` [esomeprazole]: in [2], the “Human intragastric mean 24-h pH” value is listed as 4.78.

For orientation: Ki means the dissociation constant of the complex between target and ligand, obtained from inhibition or displacement. What is called Km is the concentration of substrate that gives half-maximal velocity. Consider `CC(=O)N1CCN(c2ccc(OCC3COC(Cn4ccnc4)(c4ccc(Cl)cc4Cl)O3)cc2)CC1` (stereo not drawn) [ketoconazole], for which the Solubility in buffer in data set [3] (@pH6.5, ref [1]) is 6.93 µg/mL (≈ 13 µM). For the same compound, the “Log (@pH7.4), lipophilicity” value in data set [3] (pH7.4, ref [1]) is on record as 2.67. In addition, in data set [4] (ketoconazole), the “AUC0-48, Observed” value is […]; the “Cmax, Observed” value was […]; the Tmax, Observed was […]. Moreover, in data set [5] (ketoconazole, ref [1]), the Rbp is 0.59 and the fup was […]. Further, the Ki in the data set on CYP3A4 [6] was […]. Besides, in the data set with UGT1A1, the Km was 22.3 µM and the “UGT1A1 Vmax” value was 9.37 pmol/min/pmol.

Turning to `CS(=O)(=O)CCNCc1ccc(-c2ccc3ncnc(Nc4ccc(OCc5cccc(F)c5)c(Cl)c4)c3c2)o1` [lapatinib], the inhibitory constant (Ki) in the data set with P-gp is 3900 nM. In addition, the “CPY3A5 CLint” value in the data set on CYP3A5 was 5 µL/min/nmol. For the same compound, the “Water Solubility in FaSSIF pH=6.5” value in data set [3] (ref [3]) is 5.4 μg/mL. For the same compound, in data set [4] (lapatinib), the “AUC0-48, Observed” value was 5328.9 ng·h/mL; the “Cmax, Observed” value is 311.0 ng/mL; the Tmax, Observed was 3 h. Moreover, the Ki in the data set on OATP1B1 was 4000 nM. Further, in data set [5] (lapatinib, ref [4]), the fup is recorded as 0.01. Further, in data set [5] (lapatinib, ref [5]), the Rbp is reported as 0.84. The “CPY3A4 CLint” value in the data set with CYP3A4 [7] is 105 µL/min/nmol. The Ki at BCRP1 was 25 nM.
